Source: patent publication US20250176877A1, “SENSING PLATFORMS WITH NEEDLES AND METHODS OF FABRICATION AND USE” (Purdue Research Foundation, priority 2023, published 2025)

Test system: HL-1 cells
Conditions: 100 nM nifedipine, control without drug 0.85±0.17 mV
Method: The surface of the sensing platform 10 was coated with a gelatin solution to ensure cell adhesion, and no additional functionalization agents were used. […] To further improve the adhesion of the needles 12 to the cell membrane, mechanoporation was conducted by centrifuging at 500 rpm for one minute. Electroporation was followed using a series of biphasic square pulses to facilitate electrical access to the intracellular region. […] In order to showcase the live imaging capabilities through the optical transparency of the sensing platform 10, concurrent calcium ion (Ca^2+) flux imaging was simultaneously performed using an inverted microscope—a standard tool that is compatible only with transparent substrates. For Ca^2+ flux imaging, Fluo-8, a fluorescent calcium indicator, was loaded into the cells for live imaging, and the alteration in fluorescent intensity (AF) was measured and compared with the resting intensity (F0).
To evaluate the signal quality of the sensing platform 10, a comparative analysis of signal amplitude was conducted in comparison to a control group including the needles on a Si wafer. The measurements were limited to the cells that had been beating at approximately 1 Hz for at least one day, as the recorded amplitude and beating interval can vary with cell culture age.

## COC(=O)C1=C(C)NC(C)=C(C(=O)OC)C1c1ccccc1[N+](=O)[O-] [nifedipine]
  peak amplitude of action potential: 0.55±0.12 mV
